Measurements from patent US11420961B2, “Heterocyclic compounds” (Hoffmann-La Roche Inc., priority 2017, dated 2022).

Each molecule was assayed against T1, MAGL (recombinant wild-type) (Homo sapiens, UniProt Q99685) (assay: 4-NPA assay: MAGL inhibitory activity by hydrolysis of 4-nitrophenylacetate, absorbance at 405 nm). Settings: 4-NPA assay (values without footnote [a]).
T1 sequence (Q99685 1-303): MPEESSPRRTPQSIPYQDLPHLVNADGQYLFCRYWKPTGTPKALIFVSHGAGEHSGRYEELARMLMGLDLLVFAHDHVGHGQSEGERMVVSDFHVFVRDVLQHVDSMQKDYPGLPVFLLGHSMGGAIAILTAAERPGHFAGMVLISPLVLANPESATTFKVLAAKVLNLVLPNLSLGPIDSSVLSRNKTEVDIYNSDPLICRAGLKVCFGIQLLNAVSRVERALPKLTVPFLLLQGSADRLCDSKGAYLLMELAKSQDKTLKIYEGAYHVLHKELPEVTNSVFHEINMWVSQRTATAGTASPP
Assay type: biochemical
Description: Compounds were profiled for MAGL inhibitory activity by measuring the enzymatic activity of MAGL by following the hydrolysis of 4-nitorphenylacetate resulting in 4-nitrophenol, which absorbs at 405-412 nm (G. G. Muccioli, G. Labar, D M. Lambert, Chem. Bio. Chem. 2008, 9, 2704-2710). This assay is hereinafter abbreviated “4-NPA assay”.
The 4-NPA assay was carried out in 384 well assay plates (black with clear bottom, non-binding surface treated, Corning Ref. 3655) in a total volume of 40 μL. Compound dilutions were made in 100% DMSO (VWR Chemicals 23500.297) in a polypropylene plate in 3-fold dilution steps to give a final concentration range in the assay from 25 μM to 1.7 nM. 1 μL compound dilutions (100% DMSO) were added to 19 μL MAGL (recombinant wild-type) in assay buffer (50 mM TRIS (GIBCO, 15567-027), 1 mM EDTA (Fluka, 03690-100 ml)). The plate was shaked for 1 min at 2000 rpm (Variomag Teleshake) and then incubated for 15 min at RT. To start the reaction, 20 μL 4-Nitrophenlyacetate (Sigma N-8130) in assay buffer with 6% EtOH was added. The final concentrations in the assay were 1 nM MAGL and 300 μM 4-Nitrophenylacetate. After shaking (1 min, 2000 rpm) and 5 min incubation at RT, the absorbance at 405 nm was measured for a first time (Molecular Devices, SpectraMax Paradigm). A second measurement was then done after incubation for 80 min at RT. From the two measurements, the slope was calculated by substracting the first from the second measurement.

Row | IC50 [nM] | SMILES
1 | 7.3 | COc1ccc(C(c2ccccn2)C2CCN(C(=O)c3ccc4c(c3)NC(=O)CO4)CC2)cc1OC (single isomer, unassigned) [Example 117, 6-[4-[(S or R)-(3,4-Dimethoxyphenyl)-(2-pyridyl)methyl]piperidine-1-carbonyl]-4H-1,4-benzoxazin-3-one]
2 | 4.8 | O=C1COc2ccc(C(=O)N3CCC(C(c4ccc(F)cc4)c4cccc(F)n4)CC3)cc2N1 (single isomer, unassigned) [Example 118, 6-[4-[(S or R)-(4-fluorophenyl)-(6-fluoro-2-pyridyl)methyl]piperidine-1-carbonyl]-4H-1,4-benzoxazin-3-one]
3 | 9.1 | O=C1COc2ccc(C(=O)N3CCC(C(c4ccc(F)cc4)c4cccc(F)n4)CC3)cc2N1 (single isomer, unassigned) [Example 119, 6-[4-[(R or S)-(4-Fluorophenyl)-(6-fluoro-2-pyridyl)methyl]piperidine-1-carbonyl]-4H-1,4-benzoxazin-3-one]
4 | 0.6 | COc1cccc(C(c2ccc(F)cc2)C2CCN(C(=O)c3ccc4c(c3)NC(=O)CO4)CC2)c1 (single isomer, unassigned) [Example 120, 6-[4-[(R or S)-(4-Fluorophenyl)-(3-methoxyphenyl)methyl]piperidine-1-carbonyl]-4H-1,4-benzoxazin-3-one]
5 | 0.4 | COc1cccc(C(c2ccc(F)cc2)C2CCN(C(=O)c3ccc4c(c3)NC(=O)CO4)CC2)c1 (single isomer, unassigned) [Example 121, 6-[4-[(S or R)-(4-Fluorophenyl)-(3-methoxyphenyl)methyl]piperidine-1-carbonyl]-4H-1,4-benzoxazin-3-one]
6 | 3.6 | COc1ccc(C(c2cccnc2)C2CCN(C(=O)c3ccc4c(c3)NC(=O)CO4)CC2)cc1OC (single isomer, unassigned) [Example 122, 6-[4-[(R or S)-(3,4-Dimethoxyphenyl)-(3-pyridyl)methyl]piperidine-1-carbonyl]-4H-1,4-benzoxazin-3-one]
7 | 8.7 | COc1ccc(C(c2cccnc2)C2CCN(C(=O)c3ccc4c(c3)NC(=O)CO4)CC2)cc1OC (single isomer, unassigned) [Example 123, 6-[4-[(S or R)-(3,4-Dimethoxyphenyl)-(3-pyridyl)methyl]piperidine-1-carbonyl]-4H-1,4-benzoxazin-3-one]
8 | 7.7 | COc1ccc(C(c2ccncc2)C2CCN(C(=O)c3ccc4c(c3)NC(=O)CO4)CC2)cc1OC (single isomer, unassigned) [Example 125, 6-[4-[(S or R)-(3,4-Dimethoxyphenyl)-(4-pyridyl)methyl]piperidine-1-carbonyl]-4H-1,4-benzoxazin-3-one]
9 | 8.5 | COc1ccc(C(c2ccncc2)C2CCN(C(=O)c3ccc4c(c3)NC(=O)CO4)CC2)cc1OC (single isomer, unassigned) [Example 126, 6-[4-[(R or S)-(3,4-Dimethoxyphenyl)-(4-pyridyl)methyl]piperidine-1-carbonyl]-4H-1,4-benzoxazin-3-one]
10 | 0.6 | CS(=O)(=O)c1cccc(C(c2ccccc2)C2CCN(C(=O)c3ccc4c(c3)NC(=O)CO4)CC2)c1 (single isomer, unassigned) [Example 128, 6-[4-[(S or R)-(3-Methylsulfonylphenyl)-phenyl-methyl]piperidine-1-carbonyl]-4H-1,4-benzoxazin-3-one]
11 | 12.2 | CS(=O)(=O)c1cccc(C(c2ccccc2)C2CCN(C(=O)c3ccc4c(c3)NC(=O)CO4)CC2)c1 (single isomer, unassigned) [Example 129, 6-[4-[(R or S)-(3-Methylsulfonylphenyl)-phenyl-methyl]piperidine-1-carbonyl]-4H-1,4-benzoxazin-3-one]
12 | 0.95 | O=C1COc2cc(F)c(C(=O)N3CCC(C(c4ccccc4)c4ccccc4)CC3)cc2N1 [Example 1, 6-(4-Benzhydrylpiperidine-1-carbonyl)-7-fluoro-4H-1,4-benzoxazin-3-one]
13 | 0.5 | O=C1COc2ccc(C(=O)N3CCC(C(c4ccccc4)c4ccccc4)CC3)cc2N1 [Example 2, 6-(4-Benzhydrylpiperidine-1-carbonyl)-4H-1,4-benzoxazin-3-one]
14 | 2.03 | O=C1COc2ccc(C(=O)N3CCC(C(c4ccc(F)cc4)c4ccc(F)cc4)CC3)cc2N1 [Example 3, 6-[4-[Bis(4-fluorophenyl)methyl]piperidine-1-carbonyl]-4H-1,4-benzoxazin-3-one]
15 | 0.69 | O=C1COc2ccc(C(=O)N3CCC(C(c4ccccc4)c4ccc(Cl)c(Cl)c4)CC3)cc2N1 (stereo not shown) [Example 4, 6-[4-[(3,4-Dichlorophenyl)-phenylmethyl]piperidine-1-carbonyl]-4H-1,4-benzoxazin-3-one]
16 | 15 | O=C1COc2ccc(C(=O)N3CCC(C(O)(c4ccccc4)c4ccccc4)CC3)cc2N1 [Example 5, 6-[4-[Hydroxy(diphenyl)methyl]piperidine-1-carbonyl]-4H-1,4-benzoxazin-3-one]

Row | IC50 [nM] | SMILES
17 | 33 | O=C1COc2ccc(C(=O)N3CCC(c4c[nH]c5ccccc45)CC3)cc2N1 [Example 18, 6-[4-(1H-indol-3-yl)piperidine-1-carbonyl]-4H-1,4-benzoxazin-3-one]
18 | 3.55 | O=C1COc2ccc(C(=O)N3CCC(c4c[nH]c5ccc(Cl)cc45)CC3)cc2N1 [Example 20, 6-[4-(5-chloro-1H-indol-3-yl)piperidine-1-carbonyl]-4H-1,4-benzoxazin-3-one]
19 | 14 | O=C1COc2ccc(C(=O)N3CCC(c4c[nH]c5cc(Cl)ccc45)CC3)cc2N1 [Example 21, 6-[4-(6-chloro-1H-indol-3-yl)piperidine-1-carbonyl]-4H-1,4-benzoxazin-3-one]
20 | 8.27 | O=C1COc2ccc(C(=O)N3CCC(c4c[nH]c5ccc(F)cc45)CC3)cc2N1 [Example 22, 6-[4-(5-fluoro-1H-indol-3-yl)piperidine-1-carbonyl]-4H-1,4-benzoxazin-3-one]
21 | 10.6 | O=C1COc2ccc(C(=O)N3CCC(c4c[nH]c5cc(F)ccc45)CC3)cc2N1 [Example 23, 6-[4-(6-fluoro-1H-indol-3-yl)piperidine-1-carbonyl]-4H-1,4-benzoxazin-3-one]
22 | 20 | COc1ccc2[nH]cc(C3CCN(C(=O)c4ccc5c(c4)NC(=O)CO5)CC3)c2c1 [Example 24, 6-[4-(5-methoxy-1H-indol-3-yl)piperidine-1-carbonyl]-4H-1,4-benzoxazin-3-one]
23 | 29 | O=C1COc2ccc(C(=O)N3CCC(c4c[nH]c5cc(C(F)(F)F)ccc45)CC3)cc2N1 [Example 25, 6-[4-[6-(trifluoromethyl)-1H-indol-3-yl]piperidine-1-carbonyl]-4H-1,4-benzoxazin-3-one]
24 | 1.8 | Cn1cc(C2CCN(C(=O)c3cc4c(cc3F)OCC(=O)N4)CC2)c2cc(Cl)c(F)cc21 [Example 26, 6-[4-(5-chloro-6-fluoro-1-methylindol-3-yl)piperidine-1-carbonyl]-7-fluoro-4H-1,4-benzoxazin-3-one]
25 | 2.8 | Cn1cc(C2CCN(C(=O)c3ccc4c(c3)NC(=O)CO4)CC2)c2cc(Cl)c(F)cc21 [Example 27, 6-[4-(5-chloro-6-fluoro-1-methylindol-3-yl)piperidine-1-carbonyl]-4H-1,4-benzoxazin-3-one]
26 | 1 | Cn1cc(C2CCN(C(=O)c3cc4c(cc3F)OCC(=O)N4)CC2)c2cc(Cl)ccc21 [Example 28, 6-[4-(5-chloro-1-methylindol-3-yl)piperidine-1-carbonyl]-7-fluoro-4H-1,4-benzoxazin-3-one]
27 | 1.7 | Cn1cc(C2CCN(C(=O)c3ccc4c(c3)NC(=O)CO4)CC2)c2cc(Cl)ccc21 [Example 29]
28 | 22.9 | Cn1cc(C2CCN(C(=O)c3ccc4c(c3)NC(=O)CO4)CC2)c2ccc(Cl)cc21 [Example 30, 6-[4-(6-chloro-1-methylindol-3-yl)piperidine-1-carbonyl]-4H-1,4-benzoxazin-3-one]
29 | 28.9 | Cn1cc(C2CCN(C(=O)c3ccc4c(c3)NC(=O)CO4)CC2)c2ccccc21 [Example 31, 6-[4-(1-methylindol-3-yl)piperidine-1-carbonyl]-4H-1,4-benzoxazin-3-one]
30 | 36 | O=C1COc2ccc(C(=O)N3CCC(c4cn(C5CC5)c5cc(Cl)ccc45)CC3)cc2N1 [Example 34, 6-[4-(6-chloro-1-cyclopropylindol-3-yl)piperidine-1-carbonyl]-4H-1,4-benzoxazin-3-one]
31 | 37 | O=C1COc2ccc(C(=O)N3CCC(c4cn(Cc5cccc(Cl)c5)c5ccccc45)CC3)cc2N1 [Example 35, 6-[4-[l-[(3-chlorophenyl)methyl]indol-3-yl]piperidine-1-carbonyl]-4H-1,4-benzoxazin-3-one]
